# “Also recorded” adds a separate entry of the source. Read-outs that look alike come from different tables or passages of the source.
# Legend:
# [1] = for Prediction (BBB permeation class): PAMPA-BBB; for BBB permeation in words: PAMPA
# [2] = PAMPA-BBB; cited from earlier work
# [3] = target: T1, Recombinant human MAO-A (Homo sapiens, UniProt P21397); assay: biochemical; conditions: for remaining activity at 10 µM: 10 µM compound, mean ± standard error of duplicate or triple studies, read-out: Residual Activity at 10 µM (%) MAO-A
# T1 construct: purchased Sigma-Aldrich (St. Louis, MO, USA)
# T1 sequence (P21397 1-527): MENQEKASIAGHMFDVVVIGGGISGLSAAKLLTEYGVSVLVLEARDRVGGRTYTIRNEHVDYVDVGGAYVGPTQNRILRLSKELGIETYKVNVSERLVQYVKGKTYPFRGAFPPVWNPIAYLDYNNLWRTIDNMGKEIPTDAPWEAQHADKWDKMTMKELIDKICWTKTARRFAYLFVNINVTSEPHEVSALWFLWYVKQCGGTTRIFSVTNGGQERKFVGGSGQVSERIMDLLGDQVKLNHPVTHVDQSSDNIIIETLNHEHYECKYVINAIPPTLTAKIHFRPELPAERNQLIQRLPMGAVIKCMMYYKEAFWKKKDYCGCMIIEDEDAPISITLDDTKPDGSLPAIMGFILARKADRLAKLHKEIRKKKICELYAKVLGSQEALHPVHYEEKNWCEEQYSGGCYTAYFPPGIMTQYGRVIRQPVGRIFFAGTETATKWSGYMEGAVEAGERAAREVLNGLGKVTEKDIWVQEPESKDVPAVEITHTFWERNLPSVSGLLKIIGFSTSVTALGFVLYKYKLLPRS
# Description: (§1) The IC50 values were determined by measuring the residual activity at different concentrations of the compounds and by using GraphPad Prism software 5.0. […] BACE1 inhibitory activities were tested by the BACE1 activity detection kit. The assay method was described previously. Recombinant human MAO-A and MAO-B, AChE from Electrophorus electricus, BChE from equine serum, BACE1, and their substrates and reference inhibitors were purchased from Sigma-Aldrich (St. Louis, MO, USA).
# (§2) Lineweaver–Burk plots were used to examine the inhibition patterns, and secondary plots were used to calculate the Ki values with three inhibitor dosages.
# [4] = target: T2, MAO-B (Homo sapiens, UniProt P27338); assay: biochemical; type: biochemical; conditions: for remaining activity at 10 µM: 10 µM compound, mean ± standard error of duplicate or triple studies, read-out: Residual Activity at 10 µM (%) MAO-B; for SI (selectivity index for MAO-B compared with MAO-A): MAO-B versus MAO-A
# T2 construct: purchased Sigma-Aldrich (St. Louis, MO, USA)
# T2 sequence (P27338 1-520): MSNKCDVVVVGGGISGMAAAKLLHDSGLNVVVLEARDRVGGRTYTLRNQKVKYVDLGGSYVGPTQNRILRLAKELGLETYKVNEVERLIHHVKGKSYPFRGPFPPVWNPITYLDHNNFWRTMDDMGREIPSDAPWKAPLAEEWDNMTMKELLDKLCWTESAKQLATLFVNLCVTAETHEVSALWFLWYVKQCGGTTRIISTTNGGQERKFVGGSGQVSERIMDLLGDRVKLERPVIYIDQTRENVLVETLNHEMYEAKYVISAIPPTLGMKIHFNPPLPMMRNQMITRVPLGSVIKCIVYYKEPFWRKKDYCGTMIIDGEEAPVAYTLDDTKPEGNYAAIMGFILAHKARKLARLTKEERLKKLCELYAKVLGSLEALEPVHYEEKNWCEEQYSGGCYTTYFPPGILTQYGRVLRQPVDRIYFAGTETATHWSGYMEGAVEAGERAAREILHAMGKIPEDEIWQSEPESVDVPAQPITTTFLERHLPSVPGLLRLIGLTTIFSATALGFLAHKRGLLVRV
# Description: as §1, with “USA). […]” for “USA).”
# [5] = target: T2, MAO-B; assay: Kinetic study, Lineweaver–Burk and secondary plots; type: biochemical; conditions: for Inhibition type for MAO-B: Lineweaver–Burk plots
# Excerpt: Five different substrate concentrations were used in the kinetics.
# as §2
# [6] = target: T2, MAO-B; assay: Inhibition reversibility by dialysis; type: biochemical; conditions: for Reversibility of MAO-B inhibition: dialysis, AU versus AD; for Relative activity of dialyzed (AD) sample / Relative activity of undialyzed (AU) sample: preincubation 30 min at ~2 × IC50
# Description: The relative activity of undialyzed (AU) as well as dialyzed (AD) samples were compared to establish reversibility profiles.
# To determine reversibility patterns, the activities of dialyzed (AD) and undialyzed (AU) specimens were compared.
# [7] = in vitro; conditions: PAMPA
# [8] = kynuramine 0.06 mM, highest concentration 40 µM, read-out: IC50 (µM) MAO-A
# [9] = benzylamine 0.3 mM, highest concentration 40 µM, read-out: IC50 (µM) MAO-B
Structure (SMILES),remaining activity at 10 µM [3] [%],"IC50 [3, 8] [µM]",remaining activity at 10 µM [4] [%],SI (selectivity index for MAO-B compared with MAO-A) [4],"IC50 [4, 9] [µM]",also measured
"NCCc1ccc(O)c(O)c1 [Dopamine, reference compound]",–,–,–,–,–,"Prediction (BBB permeation class) [1]: CNS- (CNS-: Pe (10^−6 cm/s) <2, less BBB permeable); Bibliography Pe (×10^−6 cm/s) [2]: 0.2 ×10^−6 cm/s"
"CCn1cc(C(=O)O)c(=O)c2cc(F)c(N3CCNC(C)C3)c(F)c21 (stereo not shown) [Lomefloxacin, reference compound]",–,–,–,–,–,"Prediction (BBB permeation class) [1]: CNS- (CNS-: Pe (10^−6 cm/s) <2, less BBB permeable)"
"CC(=O)[C@H]1CC[C@H]2[C@@H]3CCC4=CC(=O)CC[C@]4(C)[C@H]3CC[C@]12C [Progesterone, reference compound]",–,–,–,–,–,"Prediction (BBB permeation class) [1]: CNS+ (CNS+, Pe (10^−6 cm/s) >4, good BBB permeable)"
COc1cccc(N2CCN(c3ccc(=O)n(CC(=O)NN=Cc4ccccc4)n3)CC2)c1 [TR1],82 ± 1.2,17.3 ± 1.2,80.5 ± 1.01,<0.43,> 40,–
COc1cccc(N2CCN(c3ccc(=O)n(CC(=O)NN=Cc4ccc(Cl)cc4)n3)CC2)c1 [TR2],65.8 ± 0.66,–,-4.37 ± 4.13,–,–,"BBB permeation in words [1]: tendency to traverse the blood–brain barrier; also recorded: good CNS permeabilities; Prediction (BBB permeation class) [1]: CNS+ (CNS+, Pe (10^−6 cm/s) >4, good BBB permeable); Ki [5]: 0.23 ± 0.004 µM; Inhibition type for MAO-B [5]: competitive inhibitors; IC50 [3]: 22.9 ± 0.24 µM; Reversibility of MAO-B inhibition [6]: reversible inhibitors; Relative activity of dialyzed (AD) sample [6]: 75.0%; Relative activity of undialyzed (AU) sample [6]: 28.0%; IC50 [4]: 0.27 ± 0.02 µM; Fold increase of MAO-B inhibitory potency compared to the basic structure TR1 ([4]; versus TR1): 148.1 fold; Papp [7]: 9.33 ± 0.33 ×10⁻⁶ cm/s"
COc1cccc(N2CCN(c3ccc(=O)n(CC(=O)NN=Cc4ccc(F)cc4)n3)CC2)c1 [TR3],71.66 ± 0.71,19.7 ± 0.3,20.1 ± 1.15,9.31,2.11 ± 0.51,–
COc1ccc(C=NNC(=O)Cn2nc(N3CCN(c4cccc(OC)c4)CC3)ccc2=O)cc1 [TR4],61 ± 3.54,16.5 ± 1.66,88.6 ± 8.61,<0.41,> 40,–
COc1cccc(N2CCN(c3ccc(=O)n(CC(=O)NN=Cc4ccc(C)cc4)n3)CC2)c1 [TR5],72.8 ± 1.02,18.19 ± 0.09,45.6 ± 2.56,4.12,4.42 ± 0.23,–
COc1cccc(N2CCN(c3ccc(=O)n(CC(=O)NN=Cc4ccc(Br)cc4)n3)CC2)c1 [TR6],51.7 ± 4.55,12.33 ± 0.11,70.2 ± 3.8,0.81,15.1 ± 0.18,–
O=C(Cn1nc(N2CCN(c3cccc(C(F)(F)F)c3)CC2)ccc1=O)NN=Cc1ccccc1 [TR7],55.4 ± 0.84,14.4 ± 3.55,90.7 ± 6.64,<0.36,> 40,–
O=C(Cn1nc(N2CCN(c3cccc(C(F)(F)F)c3)CC2)ccc1=O)NN=Cc1ccc(Cl)cc1 [TR8],52.9 ± 0.82,12 ± 1.75,69.1 ± 0.95,0.60,20,–
O=C(Cn1nc(N2CCN(c3cccc(C(F)(F)F)c3)CC2)ccc1=O)NN=Cc1ccc(F)cc1 [TR9],72.28 ± 0.4,17.1 ± 0.21,46.5 ± 4.93,17.08,1 ± 0.15,–
COc1ccc(C=NNC(=O)Cn2nc(N3CCN(c4cccc(C(F)(F)F)c4)CC3)ccc2=O)cc1 [TR10],56 ± 2.26,13.3 ± 1.81,91.9 ± 7.09,<0.33,> 40,–
Cc1ccc(C=NNC(=O)Cn2nc(N3CCN(c4cccc(C(F)(F)F)c4)CC3)ccc2=O)cc1 [TR11],55.6 ± 2.28,18.5 ± 5.83,83.87 ± 0.56,0.57,32 ± 1.21,–
CN(C)c1ccc(C=NNC(=O)Cn2nc(N3CCN(c4cccc(C(F)(F)F)c4)CC3)ccc2=O)cc1 [TR12],52.5 ± 1.77,14.7 ± 2.96,85.3 ± 1.59,<0.37,> 40,–
O=C(Cn1nc(N2CCN(c3cccc(C(F)(F)F)c3)CC2)ccc1=O)NN=Cc1ccc(Br)cc1 [TR13],74.2 ± 6.43,31 ± 4.33,100 ± 5.43,<0.78,> 40,–
O=C(Cn1nc(N2CCOCC2)ccc1=O)NN=Cc1ccccc1 [TR14],97.47 ± 0.71,> 40,107 ± 2.01,–,> 40,–
O=C(Cn1nc(N2CCOCC2)ccc1=O)NN=Cc1ccc(F)cc1 [TR15],85.6 ± 1.04,–,12.5 ± 3.54,–,–,IC50 [3]: > 40 µM; IC50 [4]: 0.43 ± 0.05 µM
O=C(Cn1nc(N2CCOCC2)ccc1=O)NN=Cc1ccc(Cl)cc1 [TR16],85 ± 3.08,–,13.1 ± 0.64,–,–,"BBB permeation in words [1]: tendency to traverse the blood–brain barrier; also recorded: good CNS permeabilities; Prediction (BBB permeation class) [1]: CNS+ (CNS+, Pe (10^−6 cm/s) >4, good BBB permeable); Ki [5]: 0.149 ± 0.016 µM; Inhibition type for MAO-B [5]: competitive inhibitors; IC50 [3]: > 40 µM; Reversibility of MAO-B inhibition [6]: reversible inhibitors; Relative activity of dialyzed (AD) sample [6]: 73.4%; Relative activity of undialyzed (AU) sample [6]: 31.8%; IC50 [4]: 0.17 ± 0.04 µM; Fold higher IC50 for MAO-B than TR2 ([4]; versus TR2): 1.59 fold; Times higher MAO-B inhibitory activity over the basic structure TR14 ([4]; versus TR14): 235.3 times; Times higher MAO-B inhibitory activity over TR15 ([4]; versus TR15): 2.5 times; Papp [7]: 10.6 ± 0.26 ×10⁻⁶ cm/s"
